According to patent US4963538A, “5-oxygenated HMG-CoA reductase inhibitors” (Merck & Co., Inc., priority 1989, dated 1990):

Biological target: T1, HMG-CoA reductase (Rattus norvegicus, UniProt P51639)
T1 sequence (P51639 1-887): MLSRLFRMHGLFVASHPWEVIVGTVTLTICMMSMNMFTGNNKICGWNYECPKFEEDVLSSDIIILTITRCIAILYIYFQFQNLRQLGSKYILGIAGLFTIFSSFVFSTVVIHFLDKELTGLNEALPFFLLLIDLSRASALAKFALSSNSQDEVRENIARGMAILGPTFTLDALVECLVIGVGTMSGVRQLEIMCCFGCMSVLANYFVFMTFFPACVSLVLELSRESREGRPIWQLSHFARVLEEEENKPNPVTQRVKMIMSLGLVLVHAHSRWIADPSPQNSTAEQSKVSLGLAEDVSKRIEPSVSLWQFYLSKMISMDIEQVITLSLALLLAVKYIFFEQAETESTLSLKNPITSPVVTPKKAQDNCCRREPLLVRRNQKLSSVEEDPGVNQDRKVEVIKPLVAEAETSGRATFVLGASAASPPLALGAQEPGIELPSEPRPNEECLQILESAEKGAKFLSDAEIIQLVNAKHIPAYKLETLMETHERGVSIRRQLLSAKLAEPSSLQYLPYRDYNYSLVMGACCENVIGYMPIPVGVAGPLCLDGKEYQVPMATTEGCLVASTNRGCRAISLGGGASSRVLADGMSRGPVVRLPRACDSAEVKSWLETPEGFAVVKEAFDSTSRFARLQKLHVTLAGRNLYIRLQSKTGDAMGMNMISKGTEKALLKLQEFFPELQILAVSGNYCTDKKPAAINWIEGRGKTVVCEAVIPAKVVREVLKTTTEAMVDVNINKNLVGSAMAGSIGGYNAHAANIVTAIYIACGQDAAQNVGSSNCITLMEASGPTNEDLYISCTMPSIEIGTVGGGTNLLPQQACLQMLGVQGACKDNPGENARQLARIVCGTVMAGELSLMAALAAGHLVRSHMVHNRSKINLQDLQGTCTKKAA
Assay: intrinsic HMG-CoA reductase inhibition, in vitro protocol of J. Med. Chem., 28, p. 347-358 (1985)
Assay type: biochemical
Details: compactin (mevastatin) assigned 100; IC50 of test compound compared with that of compactin determined simultaneously
Description: The intrinsic HMG-CoA reductase inhibition activity of the claimed compounds is measured in the in vitro protocol published in J. Med. Chem., 28, p. 347-358 (1985).
For estimation of relative inhibitory potencies, compactin (i.e., mevastatin) was assigned a value of 100 and the IC50 value of the test compound was compared with that of compactin determined simultaneously in the published in vitro protocol.

| Structure (SMILES) | Relative Potency |
| --- | --- |
| CCC(C)(C)C(=O)O[C@H]1C[C@@H](C)[C@@H](OC(=O)NCc2ccccc2)[C@@H]2CC[C@H](C)[C@H](CC[C@@H]3C[C@@H](O)CC(=O)O3)[C@H]21 [6(R)-[2-[8(S) (2,2-dimethylbutyryloxy)-2(S)methyl 5(R)-benzylaminocarbonyloxy-6(R)-methyl-1,2,3,4,4a(R)-,5,6,7,8,8a(R)-decahydronaphthyl-1(S)]ethyl]-4-(R)-hydroxy-3,4,5,6-tetrahydro-2H-pyran-2-one] | 360 |
| CCC(C)(C)C(=O)O[C@H]1C[C@@H](C)[C@@H](OCCc2ccccc2)[C@@H]2CC[C@H](C)[C@H](CC[C@@H]3C[C@@H](O)CC(=O)O3)[C@H]21 [6(R)-[2-[8(S)-(2,2-dimethylbutyryloxy)-2(S)-methyl-5(R)-(1-phenylethyl-2-oxy)-6(R)-methyl-1,2,3,4,4a(R)-,5,6,7,8, 8a(R)-decahydronaphthyl-1(S)]ethyl]-4(R)-hydroxy-3,4,5,6-tetrahydro-2H-pyran-2-one] | 300 |
| CCC(C)(C)C(=O)O[C@H]1C[C@@H](C)[C@@H](OP(=O)(c2ccccc2)c2ccccc2)[C@@H]2CC[C@H](C)[C@H](CC[C@@H]3C[C@@H](O)CC(=O)O3)[C@H]21 [6(R)-[2-[8(S)-(2,2-dimethylbutyryloxy)-2(S)-methyl-5(R)-diphenylphosphinyloxy-6(R)-methyl-1,2,3,4,4a(R),5,6,7,8,8a(R)-decahydronaphthyl-1(S)]ethyl]-4(R)-hydroxy-3,4,5,6-tetrahydro-2H-pyran-2-one] | 300 |
| CCC(C)(C)C(=O)O[C@H]1C[C@@H](C)[C@@H](O)[C@@H]2CC[C@H](C)[C@H](CC[C@@H]3C[C@@H](O)CC(=O)O3)[C@H]21 [6(R)-[2-[8(S)-(2,2-dimethylbutyryloxy)-2(S)-methyl-5(R)-hydroxy-6(R)-methyl-1,2,3,4,4a(R),6,7,8,8a(R)-decahydronapththyl-1(S)]ethyl]-4(R)-hydroxy-3,4,5,6-tetrahydro-2H-pyran-2-one] | 50 |
| CCC(C)(C)C(=O)O[C@H]1C[C@@H](C)[C@@H](O)[C@@H]2C=C[C@H](C)[C@H](CC[C@@H]3C[C@@H](O)CC(=O)O3)[C@H]21 [6(R)-[2-[8(S)-(2,2-dimethylbutyryloxy)-2(S)-methyl-5(R)-hydroxy-6(R)-methyl-1,2,4a(R),5,6,7,8,8a(R)-octahydronaphthyl-1(S)]ethyl]-4(R)-hydroxy-3,4,5,6-tetrahydro-2H-pyran-2-one] | 100 |
| CCC(C)(C)C(=O)O[C@H]1C[C@H](C)[C@@H](O)[C@@H]2CC[C@H](C)[C@H](CC[C@@H]3C[C@@H](O)CC(=O)O3)[C@H]21 [6(R)-[2-[8(S)-(2,2-dimethylbutyryloxy)-2(S)-methyl-5(R)-hydroxy-6(S)-methyl-1,2,3,4,4a(R)-,6,7,8,8a(R)-decahydronaphthyl-1(S)]ethyl]-4(R)-hydroxy-3,4,5,6-tetrahydro-2H-pyran-2-one] | 99.6 |
| CCC(C)(C)C(=O)O[C@H]1C[C@H](C)[C@H](O)[C@@H]2CC[C@H](C)[C@H](CC[C@@H]3C[C@@H](O)CC(=O)O3)[C@H]21 [6(R)-[2-[8(S)-(2,2-dimethylbutyryloxy)-2(S)-methyl-5(S)-hydroxy-6(S)-methyl-1,2,3,4,4a-(R)-,6,7,8,8a(R)-decahydronaphthyl-1(S)]ethyl]-4(R)-hydroxy-3,4,5,6-tetrahydro-2H-pyran-2-one] | 11.1 |
| CCC(C)(C)C(=O)O[C@H]1C[C@@H](C)C(=O)[C@@H]2CC[C@H](C)[C@H](CC[C@@H]3C[C@@H](O)CC(=O)O3)[C@@H]12 [6(R)-[2-[8(S)-(2,2-dimethylbutyryloxy)-2(S)-methyl-5-oxo-6(R)-methyl-1,2,3,4,4a(R)-,6,7,8,8a(R)-nonanydronaphthyl-1(S)]ethyl]-4(R)-hydroxy-3,4,5,6-tetrahydro-2H-pyran-2-one] | 125 |
| CCC(C)(C)C(=O)O[C@H]1C[C@@H](C)[C@@H](OC(=O)N(Cc2ccccc2)Cc2ccccc2)[C@@H]2CC[C@H](C)[C@H](CC[C@@H]3C[C@@H](O)CC(=O)O3)[C@H]21 [6(R)-[2-[8(S)-(2,2-dimethylbutyryloxyl)-2(S)-methyl-5(R)-dibenzylaminocarbonyloxy-6(R)-methyl-1,2,3,4,4a(R)-,5,6,7,8,8a(R)-decahydronaphthyl-1(S)]ethyl]-4(R)-hydroxy-3,4,5,6-tetrahydro-2H-pyran-2-one] | 94 |
